Experimental data published in ChEMBL document CHEMBL1146937, “Nitrobenzylcarbamate prodrugs of cytotoxic acridines for potential use with nitroreductase gene-directed enzyme prodrug therapy” (Bioorg Med Chem Lett, 2006).
Calls of active or inactive are those of the source. The rule behind the calls is not given here.

What was measured:
Format in all cases: functional, cell-based
V79 = assay: Antiproliferative activity against V79 cell line; details: Cricetulus griseus
HT-29 = assay: Antiproliferative activity against HT29 cell line; details: Homo sapiens
A549 = assay: Antiproliferative activity against A549 cell line; details: Homo sapiens
L1210 = assay: Antiproliferative activity against L1210 cell line; details: Mus musculus

| IC50 (HT-29) [µM] | IC50 (A549) [µM] | SMILES | IC50 (V79) [µM] | Activity (L1210) |
| --- | --- | --- | --- | --- |
| 9 | > 10 | O=C(Nc1ccc2cc3ccccc3nc2c1COC(=O)OCc1ccc([N+](=O)[O-])cc1)OCc1ccc([N+](=O)[O-])cc1 | > 10 |  |
|  |  | Nc1ccc2cc3ccccc3nc2c1CO |  | Active |
| 4.5 |  | CCOC(=O)Nc1ccc2cc3ccccc3nc2c1COC(=O)OCC |  |  |
| 2.5 | 3.5 | O=C(Nc1ccc2cc3ccccc3nc2c1CO)OCc1ccc([N+](=O)[O-])cc1 | 3.5 |  |
